The subject of data set [1] is Gram-positive bacteria. Kind of data set: minimum inhibitory concentration (MIC) assays against four types of Gram-positive bacteria. It counts as cell-based. Particulars: for antibiotic activity in MIC assays, result in words: Gram-positive bacteria, mostly compared with Arg10-teixobactin; for MIC values: four species of Gram-positive bacteria; for MIC: four Gram-positive bacteria studied, homologues as TFA salts; for MIC values lower than those of Arg10-teixobactin (fold): relative to Arg10-teixobactin. An excerpt:
The antibiotic activity of Arg10-teixobactin and homologues was investigated in minimum inhibitory concentration (MIC) assays against four types of Gram-positive bacteria, as well as control substances, in order to elucidate the importance of various functionalities within teixobactin analogues and guide the rational design of new antimicrobial compounds (as summarized in Tables 1, 2 and 3 (FIGS. 5A, 5B, and 5C respectively). These MIC studies used vancomycin as a positive control and the Gram-negative bacterium E. coli as a negative control.

A short description of data set [2]: gel formation / solubility. It counts as physicochemical. The following applies: propensity to form a gel. Here is the method: In addition, according to many embodiments of the invention, teixobactin homologues can be functionalized at position 9 to improve solubility for easier or more efficient drug administration. For example, Arg10-teixobactin has the propensity to form a gel at concentrations as low as 5 mg/mL. This poor solubility will hamper the ability of Arg10-teixobactin or any other teixobactin derivative to be used as a drug because it will impede intravenous administration. […] More specifically, in some embodiments of the invention the water solubility of teixobactin analogues can be improved by functionalization of position 9 with polyethylene glycol (PEG) derivatives. In one embodiment, Ala9 is replaced with a PEG-containing amino acid, such as Gln(PEG6OMe), the derivative of Glu, in which the side chain has been coupled to H2NCH2CH2(OCH2CH2)5OMe.

Data set [3] concerns Gram-positive bacteria. Particulars: literature structure-activity studies; cited from earlier work.

Bridge positions count the residues as written; N and C are the ends. Square brackets hold non-standard residues; d marks the D form. Peptide text beside a SMILES is read from it.

As for Lys6Arg10-teixobactin, in the data set with Gram-positive bacteria [1], the “antibiotic activity in MIC assays, result in words” value (shortened to “antibiotic activity in MIC assays”) is “loss of activity”.
Turning to D-allo-Ile11,Arg10-teixobactin, the “antibiotic activity in MIC assays” value in the data set on Gram-positive bacteria [1] is given as “half as active”.
Still for that read-out and setting: under Ala3,Lys10-teixobactin stands “diminished the activity of position 10 lysine analogue”.
Turning to Lys(Mca)9,Lys10-teixobactin, the MIC values with Gram-positive bacteria [1] is reported as 1-8 micrograms/mL.
Lys9Arg10-teixobactin: the “antibiotic activity in MIC assays” value in the data set with Gram-positive bacteria [1] (listed as Lys9,Arg10-teixobactin) was “proven activity”.
Take D-Dap8,Arg10-teixobactin: the “antibiotic activity in MIC assays” value in the data set on Gram-positive bacteria [1] is “comparable activity to Arg10-teixobactin”.
In general, MIC refers to the smallest concentration in the dilution series that meets the test's criterion for growth inhibition. On to `CC[C@H](C)[C@H](N)C(=O)N[C@@H](CO)C(=O)N[C@H]1C(=O)N[C@@H](C)C(=O)N[C@@H](CCCNC(=N)N)C(=O)N[C@@H]([C@@H](C)CC)C(=O)O[C@H]1C` [short-Arg10-teixobactin] (H-IS[dT]ARI; ester 3-C), for which, in the data set with Gram-positive bacteria [1], the MIC was over 32 µg/mL.
Consider Chg6,Arg10,Chg11-teixobactin, for which, in the data set with Gram-positive bacteria [1], the “antibiotic activity in MIC assays” value is reported as “slightly greater activity than Arg10-teixobactin” and the “MIC values lower than those of Arg10-teixobactin (fold)” value is “lower by a factor of two”.
The corresponding values for Lys10-teixobactin are “comparable to those of vancomycin” and 2-4 times.
In the case of `CC[C@H](C)[C@H](NC(=O)[C@@H](Cc1ccccc1)NC)C(=O)N[C@@H](CO)C(=O)N[C@H](CCC(N)=O)C(=O)N[C@@H](C(=O)N[C@H](C(=O)N[C@@H](CO)C(=O)N[C@H]1C(=O)N[C@@H](C)C(=O)N[C@@H](CCCNC(=N)N)C(=O)N[C@@H]([C@@H](C)CC)C(=O)O[C@H]1C)[C@@H](C)CC)[C@@H](C)CC` [Arg10-teixobactin], the MIC in the data set on Gram-positive bacteria [1] is 1 to 4 µg/mL. Moreover, the “concentration at which a gel forms” value in data set [2] was at least 5000 µg/mL. In addition, in the data set with Gram-positive bacteria [3], the “activity relative to teixobactin in MIC assays” value is reported as “about an order of magnitude less active”.
In the case of ent-Arg10-teixobactin, the “antibiotic activity in MIC assays” value in the data set on Gram-positive bacteria [1] is given as “comparable activity to Arg10-teixobactin”.
Same read-out and setting: with Arg10Lys11-teixobactin the entry was “loss of activity”.
In the case of Ala7,Arg10-teixobactin, in the data set with Gram-positive bacteria [1], the “antibiotic activity in MIC assays” value is “greatly diminished activity”.
As to Glu(PEG-Biotinyl)9,Lys10-teixobactin, in the data set on Gram-positive bacteria [1], the MIC values is given as 2-16 micrograms/mL.
As to Ac-Δ1-5-Arg10-teixobactin, the “antibiotic activity in MIC assays” value with Gram-positive bacteria [1] is “inactive”.
Turning to “dodecanoyl-Δ1-5-Arg10-teixobactin [lipobactin 1]”, the “antibiotic activity in MIC assays” value in the data set with Gram-positive bacteria [1] is recorded as “activity close to that of Arg10-teixobactin”.
Same read-out and setting: with Orn10-teixobactin the entry was “excellent to satisfactory antimicrobial activity”.
